# Where two headings read alike, the source gives them in different places.
# How the values were obtained:
# [1] = set-up: species or system guinea pigs (Slc:Hertley); settings: guinea pig, in vivo
# Procedure: Guinea pig maximization test (GPMT) which is a widely accepted model for delayed antigenicity was conducted according to the method of Mugnusson et al. (J. invest. Dermatol., 52, 1969) by using a cutaneous sensitization concentration of 1% and a patch sensitization and induction concentration of 10%. At day 1, the animal was sensitized by cutaneously administering the test substance (the quinolone compounds and the control: vehicle, vaseline) (1% solution in physiological saline+FCA emulsion) at the back of the head of the shaved guinea pigs (7 week old male Slc:Hertley). At day 7, lauryl sodium sulfate (SLC) was applied for stimulus (adjuvant treatment), and on the next day, the test substance coated on a wax paper was patched onto the shaved skin to for sealed sensitization, and after 48 hours (at day 10), the waxed paper was removed. The skin reaction was observed upon the removal. On day 22, the test substance (10%) was patched onto the anterior side of the body for induction, and the induction patching was removed after 24 hours. On the next day (at day 24) and the next day (at day 25), the skin reaction was evaluated according to the description of the document as mentioned above. Erythema and edema were scored, and the case with the total score of 2 or higher was evaluated to be positive with the maximum of the score being 7.
# [2] = male, Crj:CD IGS, rat, in vivo, po, 5 mg/kg
# [3] = female, cynomolgus monkey, in vivo, 5 mg/kg
# in vivo = settings: female, cynomolgus monkey, po, 5 mg/kg
# hERG K+ channel = hERG K+ channel (Homo sapiens, UniProt Q12809); assay: hERG-K^+ channel blocking effect
# hERG K+ channel, sequence (Q12809 whole entry): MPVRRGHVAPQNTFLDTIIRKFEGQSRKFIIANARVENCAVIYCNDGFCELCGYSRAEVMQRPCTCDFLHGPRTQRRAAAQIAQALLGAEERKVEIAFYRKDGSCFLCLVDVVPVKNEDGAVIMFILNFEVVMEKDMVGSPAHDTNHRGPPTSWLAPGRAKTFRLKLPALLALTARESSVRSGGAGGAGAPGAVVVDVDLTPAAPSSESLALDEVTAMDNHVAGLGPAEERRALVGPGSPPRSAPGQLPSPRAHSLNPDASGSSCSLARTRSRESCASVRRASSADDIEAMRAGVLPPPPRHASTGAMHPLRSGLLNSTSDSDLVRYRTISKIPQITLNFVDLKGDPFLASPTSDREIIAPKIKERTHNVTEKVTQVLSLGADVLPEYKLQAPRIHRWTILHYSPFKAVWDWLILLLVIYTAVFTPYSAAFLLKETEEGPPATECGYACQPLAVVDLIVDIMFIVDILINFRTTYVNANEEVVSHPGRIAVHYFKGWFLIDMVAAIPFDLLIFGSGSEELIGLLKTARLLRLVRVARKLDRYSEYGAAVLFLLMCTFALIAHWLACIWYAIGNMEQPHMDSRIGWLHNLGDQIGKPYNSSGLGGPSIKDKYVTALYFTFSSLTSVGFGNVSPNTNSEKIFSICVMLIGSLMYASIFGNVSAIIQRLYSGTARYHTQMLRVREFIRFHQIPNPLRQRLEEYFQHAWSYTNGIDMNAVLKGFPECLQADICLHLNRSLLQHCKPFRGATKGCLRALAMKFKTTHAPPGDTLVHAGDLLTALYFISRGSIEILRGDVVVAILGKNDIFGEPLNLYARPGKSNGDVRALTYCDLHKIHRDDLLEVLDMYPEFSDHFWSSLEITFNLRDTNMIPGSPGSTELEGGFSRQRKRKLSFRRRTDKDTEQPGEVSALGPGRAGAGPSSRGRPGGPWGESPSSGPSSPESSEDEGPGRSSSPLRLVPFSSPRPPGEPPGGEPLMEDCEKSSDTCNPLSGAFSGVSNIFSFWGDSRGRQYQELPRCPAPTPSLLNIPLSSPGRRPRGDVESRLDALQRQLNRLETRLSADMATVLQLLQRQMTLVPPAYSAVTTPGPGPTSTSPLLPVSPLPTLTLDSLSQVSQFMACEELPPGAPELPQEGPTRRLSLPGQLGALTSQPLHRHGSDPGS
# E. coli NIHJ = assay: antibacterial activity (MIC), standard method of Japanese Society of Chemotherapy; settings: Escherichia coli
# P. vulgaris, 08601 = assay: as above; settings: Proteus vulgaris, 08601, P. vulgaris
# P. aeruginosa, 32104 = assay: as above; settings: Pseudomonas aeruginosa
# P. aeruginosa, 32121 = assay: as above; settings: Pseudomonas aeruginosa
# S. aureus, 209P = assay: as above; settings: Staphylococcus aureus
# S. epidermidis, 56500 = assay: as above; settings: Staphylococcus epidermidis, 56500, S. epidermidis
# E. faecalis, ATCC 19433 = assay: as above; settings: Enterococcus faecalis, ATCC19433, E. faecalis
# [4] = tested on: S. aureus, 87037 (LVFX-resistant MRSA); assay: as above; settings: Staphylococcus aureus, MRSA, S. aureus, 87037 (LVFX-resistant MRSA)
# [5] = tested on: S. pneumoniae, J24 (penicillin-intermediate resistant bacteria); assay: as above; settings: Streptococcus pneumoniae
# [6] = pharmacokinetics in rat (concentration in blood and organs, urine excretion) after oral administration; settings: fasted rat, oral 5 mg/kg;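 note: fasted 7-week-old rats, three per group, tissue sampled up to 8 h post-dose and urine collected over 0–24 h, with conjugates measured after alkaline hydrolysis, concentrations by LC-MS/MS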
compound,measurement,setting,value
"COc1c(N2C[C@@H]3CCCN[C@@H]3C2)c(F)cc2c(=O)c(C(=O)O)cn(C3CC3)c12 [MFLX, moxifloxacin, reference compound]",Evaluation in GPMT,[1],Negative
same,Average score in GPMT,"[1]; male, Slc:Hertley",0
same,"Recovery (%) in urine in relation to the amount administered, Recovery (%) including conjugate",[2],30.8%
same,Serum Cmax (0.25 h),[2],1.49 µg/mL
same,"Recovery (%) in urine in relation to the amount administered, Recovery (%) including conjugate",[3],12.2%
same,Serum Cmax,[3]; po,1.03 µg/mL
same,AUC(0-t),in vivo,6640 ng·h/mL
same,inhibition at 30 µM,hERG K+ channel,33.9 ± 8.3%
same,inhibition at 100 µM,hERG K+ channel,44.6 ± 10.2%
same,inhibition at 300 µM,hERG K+ channel,69.9 ± 8.3%
same,MIC,E. coli NIHJ,0.012 µg/mL
same,MIC,"P. vulgaris, 08601",0.025 µg/mL
same,MIC,"P. aeruginosa, 32104",0.39 µg/mL
same,MIC,"P. aeruginosa, 32121",0.2 µg/mL
same,MIC,"S. aureus, 209P",0.05 µg/mL
same,MIC,"S. epidermidis, 56500",0.2 µg/mL
same,MIC,"E. faecalis, ATCC 19433",0.2 µg/mL
same,MIC,[4],1.56 µg/mL
same,MIC,[5],0.1 µg/mL
same,"Tissue Cmax, Lung",[6],4.69 µg/g

# — US7563805B2, “Tri-, tetra-substituted-3-aminopyrrolidine derivative” (Daiichi Pharmaceutical Co., Ltd., priority 2005, dated 2009)
